Assay results: US20140128472A1, “TREATMENT AND PREVENTION OF DISEASES RELATED TO OXIDATIVE STRESS” (UNIVERSITY OF PÉCS, priority 2011, published 2014)
Entries after “also recorded” stand apart in the source; their conditions may differ.

Experiments:
[1] = system: 3T3-L1 adipocytes; experiment: Insulin-dependent uptake of deoxy-D-glucose 2-[1 2-3H(N)] into 3T3-L1 adipocytes; assay type: cell-based, mouse
Description: Primary cultures of mouse embryo fibroblasts (3T3-L1) were purchased from ATCC (Manassas, US). Early passages of 3T3-L1 fibroblasts were cultured in Dulbecco's modified Eagle medium ((DMEM, Invitrogen, CAT number: 41966-029; Sigma Aldrich CAT number: D6046) supplemented with 10% Fetal Bovine Serum (Gibco, CAT number: 16170-078), 100 U/ml penicillin and 0.1 mg/ml streptomycin (Gibco, CAT number: 15070-063) and 398 nM p-, m-, or o-Tyr. DMEM contained 25 or 5 mM glucose (depending on the experiment), L-glutamine, and pyruvate. Cells were grown in a humidified incubator at 37° C. and 5% CO2. Differentiation medium consisted of DMEM supplemented with 10% Fetal Bovine Serum (FBS, Gibco, Csertex, Budapest, Hungary, CAT number: 10106-169) (FBS), to which a cocktail was added containing […] isobuthylmethylxanthine (Sigma Aldrich, CAT number: I 5879), 0.17 nM insulin (Sigma Aldrich, CAT number: I 9278) and 250 nM dexamethasone (Sigma Aldrich, CAT number: 861871). From Day 4 onward, cells were maintained in DMEM/10% FBS containing […] insulin with a media change every other day until experimental treatments were initiated. For all treatments, cells were incubated overnight in serum-deprived medium after 90% of the cell population reached the adipocyte phenotype.
Cells were incubated in glucose free DMEM (Gibco, Csertex, Hungary) for 30 minutes, then treated with 2, 20, 200 or 400 nmol/l insulin for 100 minutes. Simultaneously 1 μCi/ml deoxy-D-glucose 2-[1 2-3H(N)] (3.7×104 Bq/ml) (Izotóp Intézet, Hungary) was added to the plates for 100 minutes Cells were scraped into the medium and centrifuged for 5 minutes at 1000 rpm. The sediment was dissolved in 70 μl of lysis-buffer and glucose uptake was assessed by scintillation counting measuring 30 μl of the sample with a Beckman LS 5000 TD counter in counts per minute (CPM) for five minutes each, using an average activity as the outcome. Samples were frozen overnight at −70° C. and protein concentration was measured using a Hitachi spectrophotometer. Results were normalized for protein content (Kaddai2009).

[2] = system: thoracic and abdominal aorta, renal and femoral arteries; experiment: Insulin-induced relaxation of isolated arterial segments after oral tyrosine isomer supplementation of rats; assay type: in vivo, Sprague-Dawley rats; settings: for Insulin-induced relaxation, abdominal aorta, femoral (and renal) arteries / Insulin-induced relaxation, thoracic aorta: 1.76 mg/die per os; for Insulin-induced relaxation, abdominal aorta, femoral (and renal) arteries: compared to control; for Insulin-induced relaxation, thoracic aorta: compared to control/other groups; for Chronic effects on insulin-induced vasorelaxation after washout: 8th week, 4 weeks washout, all segments
Description: The experiments were carried out with the permission of the Hungarian Local Animal Experiment Committee. Shortly after weaning male CFY rats (a strain of the Sprague-Dawley rat) were placed in individual cages and held on regular diet. After two hours of fasting animals (4-5 week-old, 80-140 g) were loaded with 1.76 mg/die para-, meta- or ortho-tyrosine (p-, m-, o-tyr; Sigma-Aldrich, Inc., St. Louis, Mo. 63178, USA) dissolved in saline or vehicle (saline only) by gavage (per os) six days of the week. After one month treatment, animals were either anaesthetized with ether and were decapitated with a guillotine or p-, m-, o-tyr and vehicle supplementation was discontinued (“washout” period) and they were sacrificed […] (FIG. 8.A). The descending thoracic and abdominal aorta, renal and femoral arteries were removed and cleaned from connective tissue (FIG. 19). Sections were immediately hydrolyzed for HPLC analysis or were used for vascular reactivity studies.
(§1) In further tyrosine isomer incorporation studies when effects of chronic oral p-Tyr and o-Tyr supplementation of rats on the o-Tyr level and insulin-induced relaxation of isolated arterial segments were studied, 18 Male Sprague-Dawley rats (5-6 week-old) were used. Rats were orally supplied with either 1.76 mg/die of p-Tyr or o-Tyr or vehicle during six days per week for four weeks. […] At the end of four-week treatment, HPLC and vasomotor studies were performed. In another group of rats, p-Tyr/o-Tyr supplementation was discontinued for four weeks (“washout” period), after which they were sacrificed for HPLC and vasomotor studies.
The modified method of Fésüs et al. (Fésüs2007) was used. The distal parts of the vessels were dissected into 2 mm long segments in ice-cold Krebs buffer and rings were mounted on two stainless steel wires (40 μm in diameter) in a Danish Multimyograph Model 610M (DMT-USA Inc., Atlanta, Ga., USA). Vessels were bathed in Krebs buffer (containing 119 mM NaCl, 4.7 mM KCl, 1.2 mM KH2PO4, 25 mM NaHCO3, 1.2 mM Mg2SO4, 11.1 mM glucose, 1.6 mM CaCl2*2H2O, pH 7.4) and gassed with 5% CO2 and 95% O2 at 37° C. The resting tension/internal circumference relationship for each vessel was determined and then the internal circumference was set to 0.9×L100, where L100 is the internal circumference the vessel would have had in vivo when relaxed under a transmural pressure of 100 mmHg After this normalization procedure vessels were allowed to stabilize for 30 min, and then isometric tension was continuously recorded. Rings were preconstricted with 100 nM epinephrine. After reaching a stabile contraction plateau, relaxant responses to increasing doses of insulin were assessed. The rate of relaxation was expressed as percentage of the contraction evoked by epinephrine (100%). Para-, meta-, ortho-tyrosine or vehicle were added to the vessel chamber 10 minutes before the addition of epinephrine and 30 minutes before the addition of insulin.

[3] = Body weight of rats during four-week tyrosine isomer supplementation; assay type: in vivo, Sprague-Dawley rats; settings: four weeks, 1.76 mg/die, vs vehicle
Description: as §1

[4] = cells grown 11 days on medium with the tyrosine isomer + 5 mM glucose, insulin 2, 20, 200, 400 nM

Row | SMILES | Insulin-induced glucose uptake at equimolar concentrations with p-Tyr ([1]; 72-72 mg/l m-Tyr or o-Tyr and p-Tyr, insulin 400 nM) | Insulin-dependent deoxy-D-glucose uptake [1, 4] | Baseline glucose uptake ([1]; cells grown on m-Tyr- or o-Tyr-containing medium (72 mg/l) for different time periods, no insulin) | Insulin-induced glucose uptake, time dependence ([1]; m-Tyr or o-Tyr 72 mg/l for different time periods, insulin 400 nM, time-dependent manner) | Ability to inhibit insulin-induced glucose uptake, dependence on concentration ([1]; m-Tyr or o-Tyr 2.25-72 mg/l with p-Tyr 72 mg/l, insulin 400 nM) | Insulin-induced relaxation, abdominal aorta, femoral (and renal) arteries ([2]; 4th week) | Insulin-induced relaxation, thoracic aorta ([2]; 4th week) | Insulin-induced relaxation, all three isolated segments compared to the p-Tyr-treated group ([2]; 4th week, thoracic and abdominal aorta, femoral artery) | Chronic effects on insulin-induced vasorelaxation after washout [2] | Body weight [3] | Insulin-dependent deoxy-D-glucose uptake ([1]; cells grown 11 days on p-Tyr + high glucose (25 mM)) | Increase in glucose uptake by insulin ([1]; cells grown on p-Tyr and normal glucose, insulin 400 nM) | Excess concentration of p-Tyr over m-Tyr or o-Tyr in the media needed to compete ([1]; read from FIG. 3, insulin 400 nM)
1 | N[C@@H](Cc1ccccc1O)C(=O)O [o-Tyr, Ortho-L-tyrosine] | fully inhibit insulin-induced glucose uptake; also recorded: insulin had no effect on glucose uptake at all | no insulin effect could be verified | did not show a marked change | blocked | concentration-dependent | significantly diminished response to insulin | no significant difference; also recorded: did not observe any significant further decline of response to insulin | markedly attenuated insulin-induced relaxations | completely abolished | no difference between the groups |  |  | 
2 | N[C@@H](Cc1ccc(O)cc1)C(=O)O [p-Tyr, Para-L-tyrosine] |  | increasing concentrations of insulin lead to an increase in deoxy-D-glucose uptake |  |  |  | could not detect significant difference | increased insulin-induced relaxations only in the thoracic aorta; also recorded: increased relaxation in response to insulin; also recorded: higher vasorelaxation response to insulin; also recorded: greater vasorelaxation |  | completely abolished | no difference between the groups | insulin failed to increase glucose uptake | approx. 2 fold | 8-32 fold
